Assay results published in patent US12582626B2, “Methods and compositions for treating cancer” (The Wistar Institute of Anatomy and Biology, priority 2016, dated 2026).

Legend:
CD8+ T cells = test: Extracellular flux analysis (OCR, ECAR) of stimulated CD8+ T cells; format: cell-based, mouse; details: for Basal OCR: OS 100 μM or AmA 20 μM, Glu or Gal media, short-term hypoxia
Protocol: OCR and ECAR for CD8^+ T cells stimulated under different conditions were measured with XF24 and XF96 Extracellular Flux Analyzers (Seahorse Bioscience) following the manufacturer's instructions. Hypoxia samples were prepared in a hypoxia chamber under 1% O2. Dead cells were removed by dead cell removal kit using MACS and live cells were pre-incubated with 100 μM cobalt chloride before being removed from the hypoxia chamber and entered into the Seahorse analyzer. In experiments to determine the contribution of fatty acid oxidation (FAO) to OCR, 200 μM ETO was added 15 minutes before the Seahorse analysis. Briefly after repeated measures of basal respiration and lactate production, 1 μM OM was added to measure ATP leakage by OCR and glycolytic capacity by ECAR. 1.5 μM FCCP was then added to measure maximal respiration by OCR followed by addition of 100 nM Rotenone and 1 μM Antimycin A (AmA) to determine spare respiratory capacity by OCR and then 100 mM 2-DG to determine glycolytic reserve by ECAR.

activated CD8+ T cells = test: In vitro stimulation of CD8+ T cells and drug treatments (flow cytometry, intracellular cytokine staining); format: cell-based, mouse
Protocol: Enriched CD8+ T cells were activated for 4 days in 6-well plates pre-coated with antibodies to CD3 (5 μg/ml) and CD28 (5 μg/mL) (BD Bioscience). For some samples, cells were transferred for the last 16 hours to a hypoxia chamber. To study the impact of hypoxia on relatively resting CD8+ T cells, enriched CD8+ T cells were stimulated for 48 hours under normoxia. Cells were then removed from the plates, washed and replated in fresh medium with 100 U/ml human IL-2 for 96 hours, followed by culture in normoxia or hypoxia with IL-2 for another 36 hours before analysis. Cells were cultured in Roswell Park Memorial Institute (RPMI) medium without Glu (Life Technologies) supplemented with Glu (10 mM) or Gal (10 mM), 10% dialyzed FBS (Life Technologies), 20 mM HEPES, 2 mM Glutamax, 1 mM sodium pyruvate, 0.05 mM 2-mercaptoethanol and 1% penicillin-streptomycin. Hypoxia experiments were performed in a Thermo Napco series 8000WJ CO2 incubator equipped with nitrogen tank for O2 replacement. O2 level was kept at 1% during CD8+ T cells hypoxia culture for time periods indicated in each assay. In all assays cell viability was assessed before staining. […] Drugs and corresponding vehicle controls were added as follows: 2-deoxy-D-glucose (2-DG, 2 mM, Sigma) or Fenofibrate (FF, 50 μM, Sigma) for the entire culture period; Etomoxir (Eto, 200 μM, Sigma) for the last 48 hours. DMSO concentrations were kept below 0.2% for all culture conditions.
CD8^+ T cells from spleens of naive C57Bl/6 mice were purified by negative selection using magnetic beads (MACS, STEMCELL Technologies). Enriched CD8^+ T cells were activated for 4 days in 6-well plates pre-coated with antibodies to CD3 (5 μg/ml) and CD28 (5 μg/mL) (BD Bioscience). For some samples, cells were transferred for the last 16 hours to a hypoxia chamber. To study the impact of hypoxia on resting CD8^+ T cells, purified enriched CD8^+ T cells were stimulated for 48 hours under normoxia. Cells were then washed off the plates and replated in fresh medium with 100 U/ml human IL-2 for 96 hours, followed by culture in normoxia or hypoxia with IL-2 for another 36 hours before analysis. Cells were cultured in Roswell Park Memorial Institute (RPMI) medium without Glu (Life Technologies) supplemented with Glu (10 mM) or Gal (10 mM), 10% dialyzed FBS (Life Technologies), 20 mM HEPES, 2 mM Glutamax, 1 mM sodium pyruvate, 0.05 mM 2-mercaptoethanol and 1% penicillin-streptomycin. Hypoxia experiments were performed in a Thermo Napco series 8000WJ CO2 incubator equipped with nitrogen tank for O2 replacement. O2 level was kept at 1% during CD8^+ T cells hypoxia culture for time periods indicated in each assay. Drugs and corresponding vehicle controls were added as follows: 2-deoxy-D-glucose (2-DG, 2 mM, Sigma) or Fenofibrate (FF, 50 μM, Sigma) for the entire culture period; Etomoxir (Eto, 200 μM, Sigma), Amidepsine A (AmA, 20 μM, Santa Cruz), or Orlistat (OS, 100 μM, Sigma) for the last 48 hours. DMSO concentrations were kept below 0.2% for all culture conditions.
For mitochondrial metabolic markers analysis, cells were stained with Mitosox Red (5 μM, MROS) and DioC6 (40 nM, MMP) (Life Technologies) at 37° C. for 30 minutes under either normoxia or hypoxia (for in vitro samples cultured prior to staining under hypoxia). For fatty acid uptake experiments, cells stimulated under different conditions in vitro or isolated from spleen and tumors of mice bearing 2 weeks or 1 month-old tumors were immediately incubated with 1 μM BODIPY FL C16 (Life tech) for 30 mins at 37° C. Cells were washed twice with cold PBS before surface staining. For Cpt1a staining, cells were stained for surface markers first followed by permeabilization with transcription factor buffer set (BD Pharmingen, San Diego, CA). Cells were stained with anti-Cpt1a antibody or mouse IgG2b isotype control antibody (abcam) at 5 μg/ml in 1× permwash for 45 mins at 4° C. […]

[1] = system: vaccine-induced CD8+ T cells; test: FF treatment of vaccinated donor mice, splenic CD8+ T cells analysed before transfer; format: in vivo, mouse; details: samples incubated with Eto
Protocol: For in vivo treatment, fenofibrate (FF; at 100 mg/kg/day, Sigma) was first diluted in dimethylsulfoxide (DMSO) and then further diluted in PBS and given by oral gavage daily for 3 weeks. Control mice received diluent at the same volume. For adoptive transfer experiments, 1×10^7 in vitro activated CD8^+ T cells transduced with lentivectors or splenocytes from vaccinated mice treated with drugs and containing 5×10^4 Trp-1455 tetramer^+CD8^+ T cells per dose were injected intravenously into recipient mice. For FF/control treated splenocytes or wild type/PPAR-α KO splenocytes co-transfer experiments, splenocytes containing 10^5 Trp-1455 tetramer^+CD8^+ T cells from each group were mixed and transferred into CD90.1^+ recipient mice intravenously.
To assess how increased FA catabolism affects CD8+TIL functions, we vaccinated CD90.2+ mice congenic for CD45, and treated them for 3 weeks daily with FF (CD45.1 mice) or diluent (CD45.2 mice). Splenocytes from these mice were mixed at a 1:1 ratio of Trp-1-specific CD8+ T cells from the 2 donors and transferred into CD90.1+ recipient mice, which had been challenged with tumor cells and vaccinated 3 days later. Cells were transferred 2 days after vaccination (FIG. 6A).

Structure (SMILES): CCCCCCCCCCC[C@@H](C[C@@H]1OC(=O)[C@H]1CCCCCC)OC(=O)[C@H](CC(C)C)NC=O [OS, Orlistat]
- Basal OCR (CD8+ T cells): decreases
- PD-1 expression (activated CD8+ T cells; under hypoxia, OS, regardless of other culture conditions): decreases

Structure (SMILES): CCOC(=O)[C@@]1(CCCCCCOc2ccc(Cl)cc2)CO1 [Eto, etomoxir]
- FF-enhanced OCR of splenocytes [1]: blocked
- OCR (CD8+ T cells; Eto 200 μM, CD8+ T cells stimulated in Glu or Gal media): decreases
- functions and polyfunctionality of CD8+ T cells (activated CD8+ T cells; cultured with limited access to Glu and O2): decreases
- PD-1 expression (activated CD8+ T cells; under hypoxia, FF 50 μM or Eto 200 μM): decreases

Structure (SMILES): O=CC[C@@H](O)[C@H](O)[C@H](O)CO [2-DG, 2-deoxy-D-glucose]
- O2 consumption rate (OCR) (CD8+ T cells; Glu medium with 2-DG 2 mM): decreases
- OCR/ECAR ratio (CD8+ T cells; Glu medium with 2-DG 2 mM): augments
- extracellular acidification rate (ECAR) (CD8+ T cells; Glu medium with 2-DG 2 mM): declines
- PD-1 expression (activated CD8+ T cells; 2-DG compared to cells grown with Glu): more

Structure (SMILES): COc1cc(C)c(C(=O)Oc2cc(C)c(C(=O)Oc3cc(C)c(C(=O)NC(C)C(=O)O)c(O)c3)c(O)c2)c(OC)c1 (stereo not shown) [AmA, Amidepsine A]
- Basal OCR (CD8+ T cells): decreases
- functions of T cells (activated CD8+ T cells; Gal media and hypoxia): decrease functions
- PD-1 expression (activated CD8+ T cells; under hypoxia, AmA, Gal medium): decreases
